Experiments:
bone marrow = settings: background statement; cited from earlier work
tumour = settings: background statement; cited from earlier work
[1] = LD50 acute toxicity, ddy mice, single abdominal injection; settings: mouse, in vivo, ip, 5 ddy mice, 14 days observation, Behrens-Koerber's method
Description: (§1) As used herein, the term "LD50 " denotes the acute toxicity. The term "ED50 " denotes the administered amount needed for reducing the volume of Sarcoma 180 solid tumours in animals to 50% of the corresponding tumour volume in control (untreated) animals. The term "WBC4000 " denotes the minimum dose of the drug needed to reduce the number of peripheral leucocytes to 4000/mm^3. A greater TI value results in a broader tolerance to the drug, which is advantageous for higher anti-tumour activity and decreased toxicity. The term "T" used herein denotes the average survival days of the test animals administered with the test compound. The term "C" denotes the average survival days of the control (untreated) animals. The term "OPD" denotes the dose of the drug resulting in the highest survival ratio. The term "ILS30 " denotes a 30% increase of life-span.
LD50, ED50 and WBC4000 were respectively determined as follows:
Each animal of the test group, consisting of 5 ddy mice, was administered once with a test compound by abdominal injection. […] To determine the LD50 value, Behrens-Koerber's method was applied.

[2] = tested on: lymphocytic Leukemia P-388; assay: Anti-tumour activity against lymphocytic Leukemia P-388 in mice; type: in vivo, mouse, female of CDF strain; settings: for (ILSmax)c: (ILSmax of test compound)/(ILSmax of mitomycin C), ILS=(T-C)/C×100; for (TI)c: (TI of test compound)/(TI of mitomycin C), TI = OPD/dose which results in ILS30; for ED (optimal dose, highest survival) / ED (30% increase of life-span): Mus musculus, P388, ip, i.p. 24 h after implantation; for ED (optimal dose, highest survival): dose resulting in the highest survival ratio, 30 days, read-out: OPD; for ED (30% increase of life-span): read-out: Dose needed to give ILS30
Description: Also, their therapeutic indexes, expressed by the formula:
TI=(OPD)/(dose which results in ILS30),
against lymphocytic Leukemia P-388 and the maximum increased life spans (ILSmax), defined by the formula: […]
as §1
The experiment was carried out in the following manner. 1×10^6 lymphocytic Leukemia P-388 tumour cells were abdominally implanted into each mouse of a group consisting of 5 mice (body weight about 22 g; female of CDF strain). 24 hours after implantation, a physiological saline solution (0.2 ml) containing the test compound with or without addition of Tween 80 was abdominally given to the test animal.
Table 7 indicates anti-tumour activities of selected Compounds (I) against lyphocytic Leukemia P-388.

Sarcoma 180 solid tumour = assay: ED50 against Sarcoma 180 solid tumour implanted in mice; type: in vivo, male mouse (ddy strain); settings: for (CI)c: (CI of test compound)/(CI of mitomycin C), CI = LD50/ED50; for ED50: Mus musculus, Sarcoma-180, iv, 168 h, i.v. (tail vein) 24 h after implantation, tumour volume at 7 days, dose for T/C of 0.5
Description: With regard to the so-called chemotherapeutic index viz. the CI value against sarcoma 180 solid tumour, expressed by the formula: […]
as §1
the term (CI)c denotes (CI of the test compound)/(CI of mitomycin C), and
5×10^6 sarcoma 180 solid tumor cells were abdominally implanted into ddy mice. 7 days after this, ascites cells were sampled. The cells were washed once with a sterilized physiological saline and were used to prepare a cell suspension containing 5×10^7 cells per ml of a sterilized physiological saline. On each occasion, 0.1 ml of the cell suspension was subcutaneously implanted under the skin of the right armpit of a male mouse (ddy strain; body weight 20±2 g). The test compound which was dissolved in a physiological saline with or without addition of Tween 80 was injected into the tail vein of each animal of a group consisting of 5 mice at a dose of 0.1-0.2 ml 24 hours after the implantation of the tumor cells.
The anti-tumor activity was determined in the following manner:
7 days after the implantation, the major axis (a) and the minor axis (b) of the tumour were measured to calculate a value of (a×b^2)/2 which corresponds to the volume of the tumour. The antitumour activity was expressed by the ratio of the volume of the tumour (T) of the group of animals administered with the test compound to the corresponding volume of tumours (C) of the untreated animals.
On graph paper, T/C was plotted on the ordinate using an arithmetic scale and the administered amount of test compound was plotted on the abscissa using a logarithmic scale. The relationship between the dose and T/C was shown by a straight line determined by the method of least squares, from which ED50 viz. a dose corresponding to T/C of 0.5 was obtained.

| Structure (SMILES) | toxicity to bone marrow (bone marrow) | anti-tumour activity (tumour) | LD50 at 336 h [1] [mg/kg] | (ILSmax)c [2] | (TI)c [2] | ED (optimal dose, highest survival) [2] [mg/kg] | ED (30% increase of life-span) [2] [mg/kg] | (CI)c (Sarcoma 180 solid tumour) | ED50 (Sarcoma 180 solid tumour) [mg/kg] |
| --- | --- | --- | --- | --- | --- | --- | --- | --- | --- |
| CO[C@@]12[C@H](COC(N)=O)C3=C(C(=O)C(C)=C(N)C3=O)N1C[C@@H]1N[C@@H]12 [mitomycin C] | strong toxicity to bone marrow | strong anti-tumour activity | – | – | – | – | – | – | – |
| COC(=O)[C@H]1CCCN1C(=O)SCCNC1=C(C)C(=O)C2=C(C1=O)[C@@H](COC(N)=O)[C@@]1(OC)[C@H]3N[C@H]3CN21 [Compound 32, 7-N--[2-((S)--2-methoxycarbonylpyrrolidino)carbonylthioethyl]mitomycin C] | – | – | 67.5 | 1.40 | 2.14 | 37.5 | 1.67 | 1.48 | 17.9 |
| CO[C@@]12[C@H](COC(N)=O)C3=C(C(=O)C(C)=C(NCCSC(=O)NC(C)C)C3=O)N1C[C@@H]1N[C@@H]12 [Compound 7, 7-N--(2-isopropylaminocarbonylthioethyl)mitomycin C] | – | – | 45 | > 1.76 | 2.48 | 12.5 | 0.77 | 2.29 | 7 |
| CCCNC(=O)SCCNC1=C(C)C(=O)C2=C(C1=O)[C@@H](COC(N)=O)[C@@]1(OC)[C@H]3N[C@H]3CN21 [Compound 27, 7-N--(2-n-propylaminocarbonylthioethyl)mitomycin C] | – | – | 37.5 | 1.84 | 3.11 | 25 | 0.67 | 1.33 | 11.1 |
| CCN(CC)C(=O)SCCNC1=C(C)C(=O)C2=C(C1=O)[C@@H](COC(N)=O)[C@@]1(OC)[C@H]3N[C@H]3CN21 [Compound 4, 7-N--(2-diethylaminocarbonylthioethyl)mitomycin C] | – | – | 45 | > 1.21 | 1.18 | 25 | 2.02 | 1.64 | 13.3 |
| CO[C@@]12[C@H](COC(N)=O)C3=C(C(=O)C(C)=C(NCCSC(=O)NC4CCCCC4)C3=O)N1C[C@@H]1N[C@@H]12 [Compound 29, 7-N--(2-cyclohexylaminocarbonylthioethyl)mitomycin C] | – | – | 43.8 | 1.69 | 2.45 | 25 | 0.85 | 1.43 | 12 |
